# Assay results: publication PMC10671498, “Antiproliferative and Cytotoxic Properties of Propynoyl Betulin Derivatives against Human Ovarian Cancer Cells: In Vitro Studies” (International Journal of Molecular Sciences, 2023)
# What was measured:
# SK-OV-3 cells [1] = assay: Cell morphology, acridine orange staining; type: cell-based, human; conditions: SK-OV-3, 24 h, 30 µM
# Protocol: Acridine orange staining was preceded by preparation of a cell culture at a density 1 × 10^5 per well in a 24-well glass bottom plate (NEST Biotechnology, Wuxi, China). Cells were cultured for 24 h in a standard medium (1 mL), after which the medium was replaced with a new medium containing 10 µM and 30 µM of the test compounds or with 0.2% DMSO (control). Cells were incubated in the presence of test substances for 24 h in a CO2 incubator. To each of the test wells, acridine orange dissolved in PBS (the final concentration was 1 µg/mL) was added and incubated for 5 min in a CO2 incubator. After incubation, the cells were observed under a Nikon Eclipse TS-100F microscope (Nikon Instruments Europe, Amstelveen, The Netherlands). The photographs were taken with a Nikon DS-Fi1 digital camera, supported by the NIS-Elements application.
# SK-OV-3 cells [2] = assay: Plasma membrane permeability (DNA-histone complexes in culture medium); type: cell-based, human; conditions: SK-OV-3, 24 h, with 5 µM cyclosporin A added 30 min before
# Protocol: Fragmentation of genomic DNA was determined by means of the Cell Death Detection ELISAPLUS kit (Roche, Basel, Switzerland). This method rests on the immunoenzymatic detection of DNA–histone complexes in the cytoplasmic cell fraction or cell culture supernatants. Cells were plated and cultured in 96-well plates (Greiner Bio-One) at the initial density of 5 × 10^3 cells per well in 100 µL of culture medium. Cells were allowed to attach and grow for 1 day prior to the addition of test reagents. Then, the media were replaced with the working solutions (3 µM, 10 µM, 30 µM), and cells were exposed to compounds 2–6 for 24 h. In some cases, 5 µM cyclosporin A (CsA, an inhibitor of the mitochondrial permeability transition) was added to the cells 30 min before treatment with the betulin derivative. Subsequently, cells were incubated concomitantly with both compounds. […] In one experiment, the presence of mono- and oligonucleosomes was determined in 20 µL samples of centrifuged culture supernatants (media) to detect the permeability of plasma membrane (considered as an indicator of cell necrosis). […] Absorbance was measured at 405 nm and 490 nm (reference wavelength), and the enrichment factor of the cytoplasmic (or supernatant) fraction in mono- and oligonucleosomes was calculated according to the formula: EF = absorbance of sample cells/absorbance of control cells.
# C32 cell line = system: C32 cell line; parameters: method as in PMID 33572631; conditions: cited from earlier work
# SK-OV-3 cells [3] = assay: LDH release assay, SK-OV-3; type: cell-based, human; conditions: SK-OV-3, 24 h, 10 μM and 30 μM
# Protocol: In order to evaluate the cytotoxic effect, the release of LDH into the culture medium using the In Vitro Toxicology Assay Kit, Lactic Dehydrogenase Based (TOX7; Sigma Aldrich) was assessed. SK-OV-3 and OVCAR-3 cells were plated and cultured in 96-well plates (Greiner Bio-One) at the initial density of 5 × 10^3 cells per well in 100 µL of culture medium. The density of the cells was determined in the same manner as in the SRB assay. After 24 h, the media were replaced with the working solutions, which contained appropriate test compounds at concentrations of 3 μM, 10 μM, 30 μM, and control medium (0.2% DMSO). Cells were exposed to the test substances for 24 h. The background control comprised wells without cells with only control medium. To determine the maximal LDH release (high control), half of the control cultures were treated with lysis buffer. Wells with untreated cells were used as the low control of the assay. LDH activity in media was assessed according to the manufacturer’s protocol. The absorbance was measured at wavelengths of 490 nm and 690 nm (background), and the percentage of released enzyme was calculated for cells growing in the presence of compounds according to the formula:Cytotoxicity [%] = [(AT − AL)/(AH − AL)] × 100 where AT is the absorbance of treated wells; AL is low control; and AH is high control (maximal LDH release).
# Cytotoxicity was expressed as a percentage of the released LDH calculated according to the difference between the absorbance of the treated and low control wells divided by the difference between the absorbance of the high control and low control wells.
Structure (SMILES),cell morphology (acridine orange) (SK-OV-3 cells [1]),"effect of CsA on compound-induced cell death, plasma membrane permeability (SK-OV-3 cells [2])",IC50 (C32 cell line) [nM],cytotoxicity (released LDH) (SK-OV-3 cells [3])
"C=C(C)[C@@H]1CC[C@]2(CO)CC[C@]3(C)[C@H](CC[C@@H]4[C@@]5(C)CC[C@H](O)C(C)(C)[C@@H]5CC[C@]43C)[C@@H]12 [Compound 1, lup-20(29)-ene-3β,28-diol, reference compound]",typical apoptotic morphology,,,
"C#CC(=O)OC[C@]12CC[C@@H](/C(C)=C/P(=O)(OCC)OCC)C1C1CCC3[C@@]4(C)CC[C@H](O)C(C)(C)C4CC[C@@]3(C)[C@]1(C)CC2 (stereo partly shown) [Compound 6, E-29-diethoxyphosphoryl-28-O-propynoylbetulin]",,almost completely prevented,600,most cytotoxic agent
